Results: the NIST ThermoML archive (doi:10.1007/s10765-010-0885-7)

Settings: Gas, Spherical cavity resonance method

C=C(F)C(F)(F)F [2,3,3,3-tetrafluoro-1-propene]
Settings | speed of sound [m/s]
278.15 K, 25.44 kPa | 148.09
278.15 K, 50.62 kPa | 147.25
278.15 K, 75.68 kPa | 146.39
278.15 K, 101 kPa | 145.51
278.15 K, 201.3 kPa | 141.89
278.15 K, 300.48 kPa | 138.02
293.15 K, 25.29 kPa | 151.93
293.15 K, 50.99 kPa | 151.19
293.15 K, 75.57 kPa | 150.47
293.15 K, 101.23 kPa | 149.72
293.15 K, 201.08 kPa | 146.67
293.15 K, 292.42 kPa | 143.72
293.15 K, 401.24 kPa | 139.99
308.15 K, 25.26 kPa | 155.68
308.15 K, 50.39 kPa | 155.05
308.15 K, 75.5 kPa | 154.42
308.15 K, 100.64 kPa | 153.79
308.15 K, 200.87 kPa | 151.18
308.15 K, 300.85 kPa | 148.47
308.15 K, 398.92 kPa | 145.68
323.15 K, 25.34 kPa | 159.31
323.15 K, 50.23 kPa | 158.76
323.15 K, 75.47 kPa | 158.2
323.15 K, 100.59 kPa | 157.64
323.15 K, 200.87 kPa | 155.39
323.15 K, 300.93 kPa | 153.07
323.15 K, 401.34 kPa | 150.66
338.15 K, 25.37 kPa | 162.84
338.15 K, 50.45 kPa | 162.36
338.15 K, 75.5 kPa | 161.87
338.15 K, 100.77 kPa | 161.37
338.15 K, 200.63 kPa | 159.42
338.15 K, 301.18 kPa | 157.41
338.15 K, 407.01 kPa | 155.23
353.15 K, 25.67 kPa | 166.32
353.15 K, 50.67 kPa | 165.86
353.15 K, 75.38 kPa | 165.44
353.15 K, 100.55 kPa | 165.01
353.15 K, 200.64 kPa | 163.29
353.15 K, 299.53 kPa | 161.57
353.15 K, 401.3 kPa | 159.76
